Laboratory results reported in patent US7687071B1, “Nanoparticulate core shell systems and the use thereof in pharmaceutical and cosmetic preparation” (BASF Aktiengesellschaft, priority 1998, dated 2010).

Assay: Wide-angle X-ray scattering
Type: physicochemical
Details: FIG. 1
Text: The scattering plots for active ingredient (top) and dry powder from 1b) (bottom) are depicted in FIG. 1. The ritonavir starting material is crystalline, as proven by the X-ray diagram which is characterized by a number of sharp interferences. […] This also applies to the ancillary substances lactose and ascorbyl palmitate which are otherwise crystalline.

solid state by X-ray scattering plot: crystalline
Structure (SMILES): CC(C)c1nc(CN(C)C(=O)N[C@H](C(=O)N[C@@H](Cc2ccccc2)C[C@H](O)[C@H](Cc2ccccc2)NC(=O)OCc2cncs2)C(C)C)cs1 [ritonavir]
